Assays:
[1] = test system: nitric oxide production in lipopolysaccharide-treated RAW264.7 cells; experiment: Inhibition of LPS-induced NO production in RAW264.7 cells (Griess reagent); format: cell-based; details: Mus musculus, RAW 264.7 cells, compounds 30 min then LPS 1.0 μg/mL for 24 h
Method: RAW264.7 cells were plated at 1 × 10^6 cells/mL and incubated for 18 h. After incubation, the cells were treated with Compounds 1–12 for 30 min and then continuously incubated with LPS (1.0 μg/mL) for 24 h. The inhibitory effects of the isolated compounds on NO production were evaluated by using the Griess reagent and an EIA kit to determine the NO levels, as described previously.

RAW264.7 cells = experiment: Cell viability test (MTT assay); format: cell-based; details: Mus musculus, RAW 264.7 cells, compounds 25 to 150 μM, 24 h
Method: RAW264.7 cells were plated at 1 × 10^6 cells/mL and incubated for 18 h followed by the addition of Compounds 1–12 to the cells (25 to 150 μM), and the cells were incubated for 24 h. The cytotoxicity was evaluated by an MTT (3-(4,5-dimethylthiazol-2-yl)-2,5-diphenyltetrazolium bromide) assay. The […] of MTT solution (10 mg/mL in phosphate buffered saline, pH 7.4) were added to the cells 3 h prior to the end of the culture period. The incubation was terminated by the addition of 15% sodium dodecyl sulfate to each well to solubilize the formazan. The absorbance was measured by a microplate reader at 570 nm (OD570-630).

| SMILES | IC50 [1] [µM] | IC50 (RAW264.7 cells) [µM] |
| --- | --- | --- |
| O=C(C=Cc1ccc(O)c(O)c1)OCC1OC(OCc2ccccc2)C(O)C(O)C1O [Compound 1, 1-O-benzyl-6-O-E-caffeoyl-β-D-glucopyranoside] | 81.8 ± 1.3 | > 100 |
| COc1cc(C(O)C(O)CO)ccc1OC1OC(COC(=O)C=Cc2ccc(O)c(O)c2)C(O)C(O)C1O [Compound 2, 1-O-(7S,8R)-guaiacylglycerol-(6-O-E-caffeoyl)-β-D-glucopyranoside] | 71.1 ± 1.9 | 87.7 ± 3.5 |
| O=c1c(O[C@@H]2O[C@H](CO)[C@H](O)[C@H](O)[C@H]2O)c(-c2ccc(O)c(O)c2)oc2cc(O)cc(O)c12 [Compound 3, quercetin-3-O-β-D-galactopyranoside] | 81.9 ± 1.9 | > 100 |
| O=C(C=Cc1ccc(O)c(O)c1)OCC1OC(Oc2c(-c3ccc(O)c(O)c3)oc3cc(O)cc(O)c3c2=O)C(O)C(O)C1O [Compound 4, quercetin-3-O-(6''-O-E-caffeoyl)-β-D-galactopyranoside] | 83.3 ± 0.9 | > 100 |
| O=C(C=Cc1ccc(O)c(O)c1)OCC1OC(OC(=O)C=Cc2ccc(O)c(O)c2)C(O)C(O)C1O [Compound 5, 1,6-di-O-E-caffeoyl-β-D-glucopyranoside] | 69.5 ± 1.4 | > 100 |
| COc1cc(CCCO)cc(OC)c1O[C@@H]1O[C@H](CO)[C@@H](O)[C@H](O)[C@H]1O [Compound 7, dihydrosyringin] | 76.2 ± 0.6 | > 100 |
| O=C(C=Cc1ccc(O)c(O)c1)OC1OC(CO)C(O)C(O)C1O [Compound 8, 1-O-E-caffeoyl-β-D-glucopyranoside] | 70.7 ± 1.2 | 84.8 ± 5 |
| COc1c(O)cc2c(=O)oc3c(O)c(O)cc4c(=O)oc1c2c34 [Compound 10, 3-O-methylellagic acid] | 78 ± 2.3 | > 100 |
| O=C(/C=C/c1ccc(O)c(O)c1)O[C@@H]1C[C@](O)(C(=O)O)C[C@@H](O)[C@H]1O [Compound 11, chlorogenic acid] | 81.2 ± 0.7 | > 100 |

— article PMC6272251, “Two New Phenolic Glucosides from Lagerstroemia speciosa” (Molecules, 2015)
